Assay results reported in US7914797B2 (priority 2005, dated 2011).

Target: HLA-A2 on T2 cells (Homo sapiens, UniProt P04439, D140Y/D185E/D98H/E176V/E277Q/G131W/G231S/I119V/I121R/I166T/I218V/L300P/L318F/N151K/N90K/P208A/P217A/Q86G/Q94H/R138H/R169H/T345S)
Type: binding

Sequence	binding of peptide to HLA-A2 on T2 cells
ELRSRYWAI [NP 380-388]	some low binding capacity, which was not dose dependent
PKYVKQNTLKLAT [HA 307-319]	some low binding capacity, which was not dose dependent
SKAYSNCYPYDVPDYASL [HA 91-108 peptide]	binding capacity only at the higher (100 μM) concentration
LLTEVETYV [M1 3-11]	High and dose dependent binding
